Data reported in patent US6608069B1, “Phenyl xanthine derivatives” (SmithKline Beecham Corporation, priority 1998, dated 2003).

Test system: cytokine-stimulated human umbilical vein endothelial cells
Experiment: Cell Adhesion Assay: adherence of fluorescently-labelled leukocytes to endothelial cell monolayers
Type: cell-based
Conditions: inhibition of cytokine-stimulated adhesion minus basal adhesion; calcein-AM labelled leukocytes on HUVEC monolayers
Description: The antiadhesion activity of compounds of the invention was determined using a modification of the previously described method, Jurgensen, C. H. et. al., J. Immunol. 144: 653-661. The adhesiveness of cytokine-stimulated human umbilical vein endothelial cells was assessed by quantitating the adherence of fluorescently-labelled (calcein-AM, Molecular Probes, Eugene, Oreg.) leukocytes to endothelial cell monolayers. Activity was determined by calculating inhibition of cytokine-stimulated adhesion minus the basal adhesion (unstimulated).

SMILES | IC50 [µM]
COCCOCCOCCOCCOCCOCCOCCOCCOCCOC(=O)/C=C/c1ccc(-c2nc3c(=O)n(C4CCCCC4)c(=O)n(C4CCCCC4)c3[nH]2)cc1 [Example 66, (E)-4-[1,3-Bis(cyclohexyl)-1,2,3,6-tetrahydro-2,6-dioxo-9H-purin-8-yl]cinnamic Acid Nonaethylene Glycol Methyl Ether Ester] | 0.23 ± 0.1
COCCOCCOCCOCCOCCOCCOCCOCCOCCNC(=O)/C=C/c1cccc(-c2nc3c(=O)n(CC4CCCCC4)c(=O)n(CC4CCCCC4)c3[nH]2)c1 [Example 67, (E)-3-(1,3-bis(cyclohexylmethyl)-1,2,3,6-tetrahydro-2,6-dioxo-9H-purin-8-yl)cinnamic Acid Nonaethylene Glycol Methyl Ether Amide] | 2 ± 0.82
COCCOCCOCCOCCOCCOCCOCCOCCOCCNC(=O)/C=C/c1ccc(-c2nc3c(=O)n(CC4CCCCC4)c(=O)n(CC4CCCCC4)c3[nH]2)cc1 [Example 69, (E)-4-(1,3-Bis(cyclohexylmethyl)-1,2,3,6-tetrahydro-2,6-dioxo-9H-purin-8-yl)cinnamic Acid Nonaethylene Glycol Methyl Ether Amide] | 0.062 ± 0.027
COCCOCCOCCOCCOCCOCCOCCOCCOCCNC(=O)/C=C/c1ccc(-c2nc3c(=O)n(Cc4ccccc4)c(=O)n(Cc4ccccc4)c3[nH]2)cc1 [Example 70, (E)-4-[1,3-bis(benzyl)-1,2,3,6-tetrahydro-2,6-dioxo-9H-purin-8-y]cinnamic Acid Nonaethylene Glycol Methyl Ether Amide] | > 1
COCCOCCOCCOCCOCCOCCOCCOCCOCCNC(=O)/C=C/c1ccc(-c2nc3c(=O)n(CC4CCCC4)c(=O)n(CC4CCCC4)c3[nH]2)cc1 [Example 71, (E)-4-(1,3-bis(cyclopentylmethyl)-1,2,3,6-tetrahydro-2,6-dioxo-9H-purin-8-yl)cinnamic Acid Nonaethylene Glycol Methyl Ether Amide] | 0.24 ± 0.2
COCCOCCOCCOCCOCCOCCOCCOCCOCCNC(=O)/C=C/c1ccc(-c2nc3c(=O)n(CC(C)C)c(=O)n(CC(C)C)c3[nH]2)cc1 [Example 72, (E)-4-(1,3-bis(2-methylpropyl)-1,2,3,6-tetrahydro-2,6-dioxo-9H-purin-8-yl)cinnamic Acid Nonaethylene Glycol Methyl Ether Amide] | > 2
COCCOCCOCCOCCOCCOCCOCCOCCOCCNC(=O)c1ccc(-c2nc3c(=O)n(CC4CCCCC4)c(=O)n(CC4CCCCC4)c3[nH]2)cc1 [Example 75, 4-(1,3-Bis(cyclohexylmethyl)-1,2,3,6-tetrahydro-2,6-dioxo-9H-purin-8-yl)benzoic Acid Nonaethylene Glycol Methyl Ether Amide] | 0.06 ± 0.025
COCCOCCOCCOCCOCCOCCOCCOCCOCCN(C)C(=O)c1ccc(-c2nc3c(=O)n(CC4CCCCC4)c(=O)n(CC4CCCCC4)c3[nH]2)cc1 [Example 76, 4-(1,3-Bis(cyclohexylmethyl)-1,2,3,6-tetrahydro-2,6-dioxo-9H-purin-8-yl) benzoic Acid-N-methyl-Nonaethylene Glycol Methyl Ether Amide] | 0.35 ± 0.13
COCCOCCOCCOCCOCCOCCOCCOCCOCCOC(=O)/C=C/c1ccc(-c2nc3c(c(=O)n(CC4CCCCC4)c(=O)n3CC3CCCCC3)n2Cc2ccccc2)cc1 [Example 77, (E)-4-(1,3-Bis(cyclohexylmethyl)-2,3,6,7-tetrahydro-2,6-dioxo-7-benzyl-1H-purin-8-yl)cinnamic Acid Nonaethylene Glycol Methyl Ether Ester] | 0.0096 ± 0.005
COCCOCCOCCOCCOCCOCCOCCOCCOCCOC(=O)/C=C/c1ccc(-c2nc3c(c(=O)n(CC4CCCCC4)c(=O)n3CC3CCCCC3)n2CC(=O)c2ccccc2)cc1 [Example 78, (E)-4-(1,3-Bis(cyclohexylmethyl)-2,3,6,7-tetrahydro-2,6-dioxo-7-(2-oxo-2-phenylethyl)-1H-purin-8-yl)cinnamic Acid Nonaethylene Glycol Methyl Ether Ester] | 0.0001 ± 9e-05
C#CCn1c(-c2ccc(/C=C/C(=O)OCCOCCOCCOCCOCCOCCOCCOCCOCCOC)cc2)nc2c1c(=O)n(CC1CCCCC1)c(=O)n2CC1CCCCC1 [Example 80, (E)-4-(1,3-Bis(cyclohexylmethyl)-2,3,6,7-tetrahydro-2,6-dioxo-7-(2-propynyl)-1H-purin-8-yl)cinnamic Acid Nonaethylene Glycol Methyl Ether Ester] | 0.01 ± 0.004
COCCOCCOCCOCCOCCOCCOCCOCCOCCOC(=O)/C=C/c1ccc(-c2nc3c(c(=O)n(CC4CCCCC4)c(=O)n3CC3CCCCC3)n2CC(C)=O)cc1 [Example 81, (E)-4-(1,3-Bis(cyclohexylmethyl)-2,3,6,7-tetrahydro-2,6-dioxo7-(2-oxo-2-methylethyl)-1H-purin-8-yl)cinnamic Acid Nonaethylene Glycol Methyl Ether Ester] | 0.016 ± 0.018
COCCOCCOCCOCCOCCOCCOCCOCCOCCOC(=O)/C=C/c1ccc(-c2nc3c(c(=O)n(CC4CCCCC4)c(=O)n3CC3CCCCC3)n2CN2CCOCC2)cc1 [Example 82, (E)-4-(1,3-Bis(cyclohexylmethyl)-2,3,6,7-tetrahydro-2,6-dioxo-7-(4-morpholinylmethyl)-1H-purin-8-yl)cinnamic Acid Nonaethylene Glycol Methyl Ether Ester] | 0.019 ± 0.016
CCn1c(-c2ccc(/C=C/C(=O)OCCOCCOCCOCCOCCOCCOCCOCCOCCOC)cc2)nc2c1c(=O)n(CC1CCCCC1)c(=O)n2CC1CCCCC1 [Example 83, (E)-4-(1,3-Bis(cyclohexylmethyl)-2,3,6,7-tetrahydro-2,6-dioxo-7-ethyl-1H-purin-8-yl)cinnamic Acid Nonaethylene Glycol Methyl Ether Ester] | 0.028 ± 0.012
CCOC(=O)Cn1c(-c2ccc(/C=C/C(=O)OCCOCCOCCOCCOCCOCCOCCOCCOCCOC)cc2)nc2c1c(=O)n(CC1CCCCC1)c(=O)n2CC1CCCCC1 [Example 84, (E)-4-(1,3-Bis(cyclohexylmethyl)-2,3,6,7-tetrahydro-2,6-dioxo-7-(2-ethoxy-2-oxoethyl)-1H-purin-8-yl)cinnamic Acid Nonaethylene Glycol Methyl Ether Ester] | 0.007 ± 0.004
C=C(C)Cn1c(-c2ccc(/C=C/C(=O)OCCOCCOCCOCCOCCOCCOCCOCCOCCOC)cc2)nc2c1c(=O)n(CC1CCCCC1)c(=O)n2CC1CCCCC1 [Example 86, (E)-4-(1,3-Bis(cyclohexylmethyl)-2,3,6,7-tetrahydro-2,6-dioxo-7-(2-methyl-2-propenyl)-1H-purin-8-yl)cinnamic Acid Nonaethylene Glycol Methyl Ether Ester] | 0.008 ± 0.003
COCCOCCOCCOCCOCCOCCOCCOCCOCCOC(=O)/C=C/c1ccc(-c2nc3c(c(=O)n(CC4CCCCC4)c(=O)n3CC3CCCCC3)n2CC#N)cc1 [Example 87, (E)-4-(1,3-Bis(cyclohexylmethyl)-2,3,6,7-tetrahydro-2,6-dioxo-7-(cyanomethyl)-1H-purin-8-yl)cinnamic Acid Nonaethylene Glycol Methyl Ether Ester] | 0.037 ± 0.013
COCCOCCOCCOCCOCCOCCOCCOCCOCCOC(=O)c1ccc(-c2nc3c(c(=O)n(CC4CCCCC4)c(=O)n3CC3CCCCC3)n2Cc2ccccc2)cc1 [Example 88, 4-(1,3-Bis(cyclohexylmethyl)-2,3,6,7-tetrahydro-2,6-dioxo-7-benzyl-1H-purin-8-yl)benzoic Acid Nonaethylene Glycol Methyl Ether Ester] | 0.049 ± 0.019
COCCOCCOCCOCCOCCOCCOCCOCCOCCOC(=O)c1ccc(-c2nc3c(c(=O)n(CC4CCCCC4)c(=O)n3CC3CCCCC3)n2C)cc1 [Example 89, 4-(1,3-Bis(cyclohexylmethyl)-2,3,6,7-tetrahydro-2,6-dioxo-7-methyl-1H-purin-8-yl)benzoic Acid Nonaethylene Glycol Methyl Ether Ester] | 0.038 ± 0.018
COCCOCCOCCOCCOCCOCCOCCOCCOCCOC(=O)CCc1ccc(-c2nc3c(c(=O)n(CC4CCCCC4)c(=O)n3CC3CCCCC3)n2C)cc1 [Example 90, 4-[(1,3-Bis(cyclohexylmethyl)-2,3,6,7-tetrahydro-2,6-dioxo-7-methyl-1H-purin-8-yl)phenyl] propionic Acid Nonaethylene Glycol Methyl Ether Ester] | 0.24 ± 0.14
COCCOCCOCCOCCOCCOCCOCCOCCOCCNC(=O)/C=C/c1ccc(-c2nc3c(c(=O)n(CC4CCCCC4)c(=O)n3CC3CCCCC3)n2C)cc1 [Example 91, (E)-4-(1,3-Bis(cyclohexylmethyl)-2,3,6,7-tetrahydro-2,6-dioxo-7-methyl-1H-purin-8-yl)cinnamic Acid Nonaethylene Glycol Methyl Ether Amide] | 0.06 ± 0.029
COCCOCCOCCOCCOCCOCCOCCOCCOCCNC(=O)/C=C/c1ccc(-c2nc3c(c(=O)n(CC4CCCCC4)c(=O)n3CC3CCCCC3)n2Cc2ccccc2)cc1 [Example 92, (E)-4-(1,3-Bis(cyclohexylmethyl)-2,3,6,7-tetrahydro-2,6-dioxo-7-benzyl-1H-purin-8-yl)cinnamic Acid Nonaethylene Glycol Methyl Ether Amide] | 0.023 ± 0.012
COCCOCCOCCOCCOCCOCCOCCOCCOCCNC(=O)c1ccc(-c2nc3c(c(=O)n(CC4CCCCC4)c(=O)n3CC3CCCCC3)n2Cc2ccccc2)cc1 [Example 93, 4-(1,3-Bis(cyclohexylmethyl)-2,3,6,7-tetrahydro-2,6-dioxo-7-benzyl-1H-purin-8-yl)benzoic Add Nonaethylene Glycol Methyl Ether Amide] | 0.069 ± 0.097
COCCOCCOCCOCCOCCOCCOCCOCCOCCNC(=O)c1ccc(-c2nc3c(c(=O)n(CC4CCCCC4)c(=O)n3CC3CCCCC3)n2C)cc1 [Example 94, 4-(1,3-Bis(cyclohexylmethyl)-2,3,6,7-tetrahydro-2,6-dioxo-7-methyl-1H-purin-8-yl)benzoic Acid Nonaethylene Glycol Methyl Ether Amide] | 0.22 ± 0.087
COCCOCCOCCN(CCOCCOCCOC)C(=O)/C=C/c1ccc(-c2nc3c(=O)n(CC4CCCCC4)c(=O)n(CC4CCCCC4)c3[nH]2)cc1 [Example 95, (E)-4-(1,3-bis(cyclohexylmethyl)-1,2,3,6-tetrahydro-2,6-dioxo-9H-purin-8-yl)cinnamic Acid N,N-Bis Triethylene Glycol Methyl Ether Amide] | 1.7 ± 0.69
